Results on 19 compounds are retold here after patent US20230091225A1, “Bifunctional chimeric heterocyclic compounds for targeted degradation of androgen receptors and use thereof” (HINOVA PHARMACEUTICALS INC., priority 2019, published 2023).

Where two headings read alike, the source gives them in different places.

In this test the target is T1, androgen receptor (AR) (Homo sapiens, UniProt P10275).
T1 sequence (P10275 1-920): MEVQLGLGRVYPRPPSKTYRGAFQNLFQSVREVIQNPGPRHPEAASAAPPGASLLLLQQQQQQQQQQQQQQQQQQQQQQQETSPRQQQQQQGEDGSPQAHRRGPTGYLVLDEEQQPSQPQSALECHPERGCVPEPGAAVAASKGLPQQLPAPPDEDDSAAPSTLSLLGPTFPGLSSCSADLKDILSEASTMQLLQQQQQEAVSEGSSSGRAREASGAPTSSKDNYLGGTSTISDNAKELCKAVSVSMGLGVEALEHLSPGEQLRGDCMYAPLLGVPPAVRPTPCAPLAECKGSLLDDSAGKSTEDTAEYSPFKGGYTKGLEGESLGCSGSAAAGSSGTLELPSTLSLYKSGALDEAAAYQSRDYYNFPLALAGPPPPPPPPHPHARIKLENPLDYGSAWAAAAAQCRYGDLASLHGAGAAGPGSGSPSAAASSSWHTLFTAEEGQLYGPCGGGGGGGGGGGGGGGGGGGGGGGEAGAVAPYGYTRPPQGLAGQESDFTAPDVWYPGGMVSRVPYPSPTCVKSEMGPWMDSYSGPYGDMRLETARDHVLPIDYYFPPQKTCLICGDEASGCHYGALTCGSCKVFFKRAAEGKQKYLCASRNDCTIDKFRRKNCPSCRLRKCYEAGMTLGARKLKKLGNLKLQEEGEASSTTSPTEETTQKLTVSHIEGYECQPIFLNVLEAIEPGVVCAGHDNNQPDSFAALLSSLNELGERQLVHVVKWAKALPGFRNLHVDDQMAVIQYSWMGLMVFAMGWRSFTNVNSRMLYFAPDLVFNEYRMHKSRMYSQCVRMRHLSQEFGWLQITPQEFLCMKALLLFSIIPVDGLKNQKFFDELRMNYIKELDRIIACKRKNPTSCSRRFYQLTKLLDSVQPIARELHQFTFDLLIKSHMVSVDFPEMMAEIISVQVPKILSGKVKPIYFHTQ
Nature of the test: Degradation of androgen receptor (AR) protein in VCaP cells by ELISA. The class given is cell-based. The note with it: for Dmax: VCaP.

Setting [1] is: AR degradation, VCaP cells, 16 h, ELISA, Table 3-1, read-out: DC50.
The mark [2] stands for this setting: AR degradation, VCaP cells, 16 h, ELISA, Table 3-1, read-out: Dmax (%).
Setting [3] is: AR degradation, VCaP cells, 16 h, ELISA, Table 3-2, read-out: DC50.

Consider `N#Cc1ccc(OC2CCC(NC(=O)c3ncn(C4CCC(CN5CCC6(CC5)CN(c5ccc7c(c5)C(=O)N(C5CCC(=O)NC5=O)C7=O)C6)CC4)n3)CC2)cc1Cl` [Compound 84, N-((1r,4R)-4-(3-chloro-4-cyanophenoxy)cyclohexyl)-1-(1r,4R)-4-((2-(2-(2,6-dioxopiperidin-3-yl)-1,3-dioxoisoindolin-5-yl)-2,7-diazaspiro[3.5]nonan-7-yl)methyl)cyclohexyl)-1H-1,2,4-triazole-3-carboxamide], for which, under “AR degradation, VCaP cells, 16 h, ELISA, Table 3-1”, the “Dmax (%)” value is recorded as “++++ (>80%)”. Under setting [1], the 50% degradation concentration (DC50) is under 10 nM.
For `N#Cc1ccc(O[C@H]2CC[C@H](NC(=O)c3ccc(N4CC5(CCN(CC6CCN(c7ccc8c(c7)C(=O)N(C7CCC(=O)NC7=O)C8=O)CC6)CC5)C4)nn3)CC2)cc1Cl` (some centres unmarked) [Compound 282, N-((1r,4r)-4-(3-chloro-4-cyanophenoxy)cyclohexyl)-6-(7-((1-(2-(2,6-dioxopiperidin-3-yl)-1,3-dioxoisoindolin-5-yl)piperidine-4-yl)methyl)-2,7-diazaspiro[3.5]nonan-2-yl)pyridazine-3-formamide], the half-maximal degradation concentration (DC50) under setting [1] is under 10 nM. Besides, under setting [2], the Dmax is over 80%.
`N#Cc1ccc(O[C@H]2CC[C@H](NC(=O)c3ccc(N4CCC(CN5CCC6(CC5)CN(c5cc7c(cc5F)C(=O)N(C5CCC(=O)NC5=O)C7=O)C6)CC4)nn3)CC2)cc1C(F)(F)F` (some centres unmarked) [Compound 152]: the DC50 was 10 to 100 nM and the Dmax is over 80%.
Consider `N#Cc1ccc(O[C@H]2CC[C@H](NC(=O)c3ccc(N4CCC(CN5CCC(Oc6ccc7c(c6)C(=O)N(C6CCC(=O)NC6=O)C7=O)CC5)CC4)nn3)CC2)cc1Cl` (some centres unmarked) [Compound 147], for which, under setting [1], the DC50 lay in the range of 10 to 100 nM. Further, the Dmax under setting [2] lay in the range of 60 to 80%.
As to `N#Cc1ccc(OC2CCC(NC(=O)c3ccc(N4CCC5(CC4)CN(CC4CCN(c6cc7c(cc6F)C(=O)N(C6CCC(=O)NC6=O)C7=O)CC4)C5)nn3)CC2)cc1C(F)(F)F` (centres unmarked) [Compound 285, N-((1r,4r) 4-(4-cyano-3-(trifluoromethyl)phenoxy)cyclohexyl)-6-(2-((1-(2,6-dioxopiperidin-3-yl)-6-fluoro-1,3-dioxoisoindolin-5-yl)piperidine-4-yl)methyl)-2,7-diazaspiro [3.5] nonan-7-yl)pyridazine-3-formamide], the “Dmax (%)” value is given as “++++ (key: A: >80%; B: 79%-50%; C: 49%-25%; D: <25%)”. In addition, where the note is “read-out: DC50”, the DC50 is under 10 nM.
As for `N#Cc1ccc(O[C@H]2CC[C@H](NC(=O)c3ccc(N4CCC5(CCN(CC6CCN(c7ccc8c(c7)C(=O)N(C7CCC(=O)NC7=O)C8=O)CC6)CC5)CC4)nn3)CC2)cc1Cl` (some centres unmarked) [Compound 262, N-((1r,4r)-4-(3-chloro-4-cyanophenoxy)cyclohexyl)-6-(9-((1-(2-(2,6-dioxopiperidin-3-yl)-1,3-dioxoisoindolin-5-yl)piperidine-4-yl)methyl)-3,9-diazaspiro[5.5]undecan-3-yl)pyridazine-3-formamide], under setting [1], the half-maximal degradation concentration (DC50) is under 10 nM. For the same compound, the Dmax under setting [2] was over 80%.
For `N#Cc1ccc(O[C@H]2CC[C@H](NC(=O)c3cnc(N4CCC(N5CCC6(CC5)CN(c5ccc7c(c5)C(=O)N(C5CCC(=O)NC5=O)C7=O)C6)CC4)cn3)CC2)cc1Cl` (some centres unmarked) [Compound 280, N-((1r,4r)-4-(3-chloro-4-cyanophenoxy)cyclohexyl)-5-(4-(2-(2-(2,6-dioxopiperidin-3-yl)-1,3-dioxoisoindolin-5-yl)-2,7-diazaspiro[3.5]nonan-7-yl)piperidin-1-yl)pyrazine-2-carboxamide] the same measures were 10 to 100 nM and over 80%.
Regarding `N#Cc1ccc(O[C@H]2CC[C@H](NC(=O)c3ccc(N4CCC(CN5CCC6(CC5)CN(c5ccc7c(c5)C(=O)N(C5CCC(=O)NC5=O)C7=O)C6)CC4)nn3)CC2)cc1C(F)(F)F` (some centres unmarked) [Compound 151], the half-maximal degradation concentration (DC50) was under 10 nM and the greatest degradation seen (Dmax) was over 80%.
In the case of `CC1(C)[C@H](Oc2ccc(C#N)c(Cl)c2)C(C)(C)[C@H]1N1Cc2nc(C#C[C@H]3C[C@H](N4CCN(c5cc(=O)n(C6CCC(=O)NC6=O)cn5)CC4)C3)ccc2C1=O` (some centres unmarked) [Compound 395], under setting [3], the DC50 is 100 to 300 nM. In addition, the Dmax (AR degradation, VCaP cells, 16 h, ELISA, Table 3-2, read-out: Dmax (%)) fell in the range of 40 to 60%.
`CC1(C)[C@H](Oc2ccc(C#N)c(Cl)c2)C(C)(C)[C@H]1N1Cc2nc(C#CC3CCC(N4CC5CN(c6cc7c(cc6F)C(=O)N(C6CCC(=O)NC6=O)C7=O)CC5C4)CC3)ccc2C1=O` (some centres unmarked) [Compound 340]: the half-maximal degradation concentration (DC50) under setting [1] was under 10 nM. Also, the maximal degradation (Dmax) under setting [2] was over 80%.
On to “N-((1r,4r)-4-(3-chloro-4-cyanophenoxy)cyclohexyl)-6-(2-((1-(2,6-dioxopiperidin-3-yl)-6-fluoro-1,3-dioxoisoindolin-5-yl)piperidine-4-yl)methyl)-2,7-diazaspiro[(3.5]nonan-7-yl)-N-(methyl-d3)pyridazine-3-formamide [Compound 91]”, for which the “Dmax (%)” value is “+ (key: ++++: >80%; +++: 80%-60%; ++: 60%-40%; +: <40%)”. The 50% degradation concentration (DC50) (read-out: DC50) was over 300 nM.
`N#Cc1ccc(O[C@H]2CC[C@H](NC(=O)c3ccc(N4C[C@H]5CC[C@@H](C4)N5C[C@H]4[C@@H]5CN(c6cc7c(cc6F)C(=O)N(C6CCC(=O)NC6=O)C7=O)C[C@@H]54)nn3)CC2)cc1Cl` (some centres unmarked) [Compound 239] yielded a 50% degradation concentration (DC50) of 10 to 100 nM and a maximal degradation (Dmax) of 60 to 80%.
Regarding `CC1(C)[C@H](Oc2ccc(C#N)c(Cl)c2)C(C)(C)[C@H]1N1Cc2nc(C#CC3CCC(N4CCC5(CC4)CN(c4ccc6c(c4)C(=O)N(C4CCC(=O)NC4=O)C6=O)C5)CC3)ccc2C1=O` (some centres unmarked) [Compound 362], the 50% degradation concentration (DC50) under setting [1] is under 10 nM. In addition, the Dmax under setting [2] is over 80%.
Consider `CC1(C)[C@H](Oc2ccc(C#N)c(Cl)c2)C(C)(C)[C@H]1N1Cc2nc(C#CC3CCC(N4CC5CC4CN5c4cc5c(cc4F)C(=O)N(C4CCC(=O)NC4=O)C5=O)CC3)cnc2C1=O` (some centres unmarked) [Compound 387], for which the “Dmax (%)” value (AR degradation, VCaP cells, 16 h, ELISA, Table 3-2) is given as “+ (<40%)”. Besides, under setting [3], the DC50 is over 300 nM.
In the case of `N#Cc1ccc(O[C@H]2CC[C@H](NC(=O)c3cnc(N4CC5(CCN(CC6CCN(c7cc8c(cc7F)C(=O)N(C7CCC(=O)NC7=O)C8=O)CC6)C5)C4)cn3)CC2)cc1Cl` (some centres unmarked) [Compound 96], the half-maximal degradation concentration (DC50) under setting [1] is under 10 nM. For the same compound, the maximal degradation (Dmax) under setting [2] was over 80%.
As for `N#Cc1ccc(O[C@H]2CC[C@H](NC(=O)c3nnc(N4CCC(CN5CCC6(CC5)CN(c5ccc7c(c5)C(=O)N(C5CCC(=O)NC5=O)C7=O)C6)CC4)s3)CC2)cc1Cl` (some centres unmarked) [Compound 243], the DC50 was under 10 nM and the Dmax is over 80%.
On to `N#Cc1ccc(O[C@H]2CC[C@H](NC(=O)c3ccc(N4CCC5(CC4)CN(CC4CCN(c6ccc7c(c6)C(=O)N(C6CCC(=O)NC6=O)C7=O)CC4)C5)nn3)CC2)cc1Cl` (some centres unmarked) [Compound 190, N-((1r,4r)-4-(3-chloro-4-cyanophenoxy)cyclohexyl)-6-(2-((1-(2-(2,6-dioxopiperidin-3-yl)-1,3-dioxoisoindolin-5-yl)piperidine-4-yl)methyl)-2,7-diazaspiro[3.5]nonan-7-yl)pyridazine-3-formamide], for which the DC50 under setting [1] was under 10 nM. Moreover, the Dmax under setting [2] was over 80%.
For `N#Cc1ccc(O[C@H]2CC[C@H](NC(=O)c3cnn([C@H]4CC[C@H](CN5CCC6(CC5)CN(c5cc7c(cc5F)C(=O)N(C5CCC(=O)NC5=O)C7=O)C6)CC4)n3)CC2)cc1Cl` (some centres unmarked) [Compound 117] the same measures were 100 to 300 nM and over 80%.
For `N#Cc1ccc(O[C@H]2CC[C@H](NC(=O)c3ccc(N4CCC5(CC4)CN(CC4CCN(c6cc7c(cc6F)C(=O)N(C6CCC(=O)NC6=O)C7=O)CC4)C5)nn3)CC2)cc1Cl` (some centres unmarked) [Compound 75], the half-maximal degradation concentration (DC50) under setting [1] was under 10 nM. Besides, under setting [2], the Dmax was over 80%.

The DC50 is the concentration giving 50% degradation. What is called Dmax is the largest share of the target that was removed.
